In the assay the test system is benzodiazepine receptors. Put plainly: in vivo displacement of 3H-flunitrazepam specific binding to benzodiazepine receptors in a living brain. Conditions: dose which causes specific binding of 3H-flunitrazepam to benzodiazepine receptors in a living brain to be reduced to 50% of the control value. The text has this: The pharmaceutical properties of the compounds of the invention can be illustrated by determining their capability for displacing radioactive labelled flunitrazepam from benzodiazepine receptors.
The displacement activity of the compounds of the invention may be found by determining the ED50 value. The ED50 value represents the dose (mg/kg) of a test substance which causes the specific binding of ^3 H-flunitrazepam to benzodiazepine receptors in a living brain to be reduced to 50% of the control value.
Such an in vivo test is carried out as described in U.S. Pat. No. 4,774,245.

The structures appear in SMILES notation.

The molecule `FC(F)(F)c1cccc2c1C1=NCCN1c1c(-c3noc(C4CC4)n3)ncn1-2` [Compound 12, 5-(5-Cyclopropyl-1,2,4-oxadiazol-3-yl)-2,3-dihydro-12-trifluoromethyldiimidazo[1,5-a:1',2'-c]quinazoline] yielded an ED50 of 0.08 mg/kg.

Take `FC(F)(F)c1cccc2c1C1=NCCN1c1c(-c3nc(C4CC4)no3)ncn1-2` [Compound 19, 5-(3-Cyclopropyl-1,2,4-oxadiazol-5-yl)-2,3-dihydro-12-trifluoromethyldiimidazo[1,5-a:1',2'-c]quinazoline]: the 50% effective dose (ED50) was found to be 0.08 mg/kg.

As for `Brc1cccc2c1C1=NCCN1c1c(-c3nc(C4CC4)no3)ncn1-2` [Compound 8, 12-Bromo-5-(3-cyclopropyl-1,2,4-oxadiazol-5-yl)-2,3-dihydrodiimidazo[1,5-a:1',2'-c]quinazoline], the ED50 came to 1.7 mg/kg.

In turn, `Clc1cccc2c1C1=NCCN1c1c(-c3noc(C4CC4)n3)ncn1-2` [Compound 6, 12-Chloro-5-(5-cyclopropyl-1,2,4-oxadiazol-3-yl)-2,3-dihydrodiimidazo[1,5-a:1',2'-c]quinazoline] had a 50% effective dose (ED50) of 0.23 mg/kg.

`Fc1ccc2c(c1)C1=NCCN1c1c(-c3noc(C4CC4)n3)ncn1-2` [Compound 21, 5-(5-Cyclopropyl-1,2,4-oxadiazol-3-yl)-11-fluoro-2,3-dihydrodiimidazo[1,5-a:1',2'-c]quinazoline] displayed a median effective dose (ED50) of 0.26 mg/kg.

`c1ccc2c(c1)C1=NCCN1c1c(-c3noc(C4CC4)n3)ncn1-2` [Compound 1, 5-(5-cyclopropyl-1,2,4-oxadiazol-3-yl)-2,3-dihydrodiimidazol[1,5-a:1',2'-c]quinazoline] came in with an ED50 of 0.47 mg/kg.

For the molecule `FC(F)(F)c1cccc2c1c1nccn1c1c(-c3noc(C4CC4)n3)ncn21` [Compound 28, 5-(5-Cyclopropyl-1,2,4-oxadiazol-3-yl)-12-trifluoromethyldiimidazo[1,5-a:1',2'-c]quinazoline], the 50% effective dose (ED50) stood at 0.12 mg/kg.

`Brc1cccc2c1C1=NCCN1c1c(-c3noc(C4CC4)n3)ncn1-2` [Compound 7, 12-Bromo-5-(5-cyclopropyl-1,2,4-oxadiazol-3-yl)-2,3-dihydroiimidazo[1,5-a:1',2'-c]quinazoline] came in with an ED50 of 0.92 mg/kg. Compared with the last molecule, the ED50 is about 7.7-fold higher.

Broadly, the ED50 is the dose at which the effect has come halfway, by size or by number of responders. The low end stands for an effect at a small dose, the high end for a need for a large dose.
